Reference: ChEMBL document CHEMBL5500404, “Discovery and Development of NLRP3 Inhibitors Targeting the LRR Domain to Disrupt NLRP3-NEK7 Interaction for the Treatment of Rheumatoid Arthritis” (J Med Chem, 2024)
Active and inactive are the calls of the source. The calls are words filed in the database; no cut-off is given here.

Experiments:
[1] = tested on: Rattus norvegicus; assay: (§1) Anti-inflammatory activity against complete Freund's adjuvant (CFA)-induced arthritis rat model assessed as reduction in IL-1beta in rat synovium from the left rear ankle at 20 to 80 mg/kg, ip treated after 17 days of CFA challenge measured after 18 days (day 17 to 34) by immunofluorescence based assay relative to model group; format: functional, organism-based; conditions: dose 20-80 mg/kg, time 18.0 day
[2] = tested on: Rattus norvegicus; assay: Anti-inflammatory activity against complete Freund's adjuvant (CFA)-induced arthritis rat model assessed as decrease in thymus size at 20 to 80 mg/kg, ip treated after 17 days of CFA challenge measured after 18 days (day 17 to 34) relative to model group; format: functional, organism-based; conditions: dose 20-80 mg/kg, time 18.0 day
[3] = MRT (0 to infinity) in Sprague-Dawley rat at 20 mg/kg, IG measured upto 1440 mins by LC-MS/MS analysis; format: ADME, organism-based; conditions: in vivo, po
[4] = Half life in Sprague-Dawley rat at 20 mg/kg, IG measured upto 1440 mins by LC-MS/MS analysis; format: ADME, organism-based; conditions: in vivo, po
[5] = AUC (0 to infinity) in Sprague-Dawley rat at 20 mg/kg, IG measured upto 1440 mins by LC-MS/MS analysis; format: ADME, organism-based; conditions: in vivo, po
[6] = Cytotoxicity against human THP-1 cells assessed as cellular proliferation inhibition measured after 48 hrs by MTT assay; format: toxicity, cell-based
[7] = tested on: Rattus norvegicus; assay: as §1, with “synovial hyperplasia” for “reduction in IL-1beta”, “H and E staining” for “immunofluorescence”; format: functional, organism-based; conditions: dose 20-80 mg/kg, time 18.0 day
[8] = Apparent volume of distribution during terminal phase in Sprague-Dawley rat at 20 mg/kg, ip measured upto 720 mins by LC-MS/MS analysis; format: ADME, organism-based; conditions: in vivo, read-out: Vz/F
[9] = tested on: Rattus norvegicus; assay: as §1, with “immunohistochemistry” for “immunofluorescence”; format: functional, organism-based; conditions: dose 20-80 mg/kg, time 18.0 day
[10] = target: T1, NACHT, LRR and PYD domains-containing protein 1 (Homo sapiens) (UniProt Q9C000); assay: Inhibition of NLRP1 inflammasome in Val-boroPro-induced human THP-M cells assessed as inhibition of IL-1beta level at 20 to 60 uM pretreated for 24 hrs followed by stimulated with LPS by ELISA; format: cell-based; conditions: dose 20-60 µM
T1 sequence (whole entry): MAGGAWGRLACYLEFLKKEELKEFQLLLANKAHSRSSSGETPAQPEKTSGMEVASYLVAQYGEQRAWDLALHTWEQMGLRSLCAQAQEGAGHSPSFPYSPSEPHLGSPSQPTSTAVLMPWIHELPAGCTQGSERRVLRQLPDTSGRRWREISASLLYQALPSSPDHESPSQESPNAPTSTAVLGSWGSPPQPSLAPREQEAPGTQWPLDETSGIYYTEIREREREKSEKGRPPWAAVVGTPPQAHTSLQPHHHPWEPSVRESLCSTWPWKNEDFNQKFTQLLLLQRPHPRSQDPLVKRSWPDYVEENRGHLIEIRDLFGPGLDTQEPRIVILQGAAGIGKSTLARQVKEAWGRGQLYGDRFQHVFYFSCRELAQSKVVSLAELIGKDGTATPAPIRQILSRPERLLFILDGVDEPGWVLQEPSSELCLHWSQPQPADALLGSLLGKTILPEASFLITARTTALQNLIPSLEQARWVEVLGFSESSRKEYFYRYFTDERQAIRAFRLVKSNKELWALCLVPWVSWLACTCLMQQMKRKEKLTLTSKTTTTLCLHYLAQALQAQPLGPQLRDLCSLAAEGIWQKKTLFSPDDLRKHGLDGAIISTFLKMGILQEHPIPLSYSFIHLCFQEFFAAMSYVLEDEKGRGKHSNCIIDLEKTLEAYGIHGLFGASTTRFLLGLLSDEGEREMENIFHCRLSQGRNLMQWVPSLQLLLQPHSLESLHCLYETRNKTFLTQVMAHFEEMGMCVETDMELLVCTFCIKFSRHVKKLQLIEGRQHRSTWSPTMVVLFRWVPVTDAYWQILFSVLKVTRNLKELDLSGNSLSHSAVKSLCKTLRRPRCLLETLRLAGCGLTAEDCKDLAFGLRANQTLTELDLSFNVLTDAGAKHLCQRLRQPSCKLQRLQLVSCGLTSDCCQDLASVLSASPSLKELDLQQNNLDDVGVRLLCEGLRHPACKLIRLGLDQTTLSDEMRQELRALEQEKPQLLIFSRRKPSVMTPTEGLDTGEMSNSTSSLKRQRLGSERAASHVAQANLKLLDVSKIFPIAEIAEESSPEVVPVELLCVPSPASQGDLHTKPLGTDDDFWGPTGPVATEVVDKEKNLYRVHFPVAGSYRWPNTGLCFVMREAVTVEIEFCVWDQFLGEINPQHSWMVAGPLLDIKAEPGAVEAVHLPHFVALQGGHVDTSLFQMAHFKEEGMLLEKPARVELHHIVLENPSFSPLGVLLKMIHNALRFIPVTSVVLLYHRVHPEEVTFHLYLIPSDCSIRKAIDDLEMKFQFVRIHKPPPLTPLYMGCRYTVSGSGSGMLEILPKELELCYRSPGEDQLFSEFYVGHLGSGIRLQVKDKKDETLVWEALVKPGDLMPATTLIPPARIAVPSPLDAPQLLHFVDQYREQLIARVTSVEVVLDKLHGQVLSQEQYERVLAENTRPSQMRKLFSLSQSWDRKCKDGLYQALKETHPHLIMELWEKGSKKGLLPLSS

MRT inf [3]: 2.7 h | half-life [4]: 2.14 h | AUC(0-inf) [5]: 867 ng·h/mL | Vd/F [8]: 2.8 L/kg | inhibition [10]: inactive
Compound: COCCCNC(=O)c1ccc(Cn2c(SCC3CCCCC3)nc3ccncc32)cc1
Activity [1]: Active | Activity [2]: Active | IC50 at 48 h [6]: > 100 µM | Activity [7]: Active | Activity [9]: Active
